# System: T5 (DNA, single strand) TTTTT
# Test: direct excitation Eu
# Conditions: 50 mM NaNO3; 20 mM HEPES pH 7.0; 25 µM complex; 5–50 µM nucleic acid
compound,measurement,value
NC(=O)CN1CCN(CC(N)=O)CCN(Cc2ccc(CN3CCN(CC(N)=O)CCN(CC(N)=O)CCN(CC(N)=O)CC3)cc2)CCN(CC(N)=O)CC1.O.O.O.O.[Eu+3].[Eu+3],binding,weak

# From paper PMC2717892 (2009)
